Measurements: patent US20210353579A1, “HIGH PENETRATION COMPOSITIONS AND USES THEREOF” (Techfields Pharma Co., Ltd., priority 2006, published 2021)
Values after ≈ are worked out from the molar mass of the structure shown.

Experiments:
[1] = system: human skin tissue; details: pH 7.4; for In vitro penetration rate (apparent flux), parent compounds: human, 20 %
[2] = system: mice; experiment: Analgesic activity, acetic acid writhing; type: in vivo; details: 50 mg/kg transdermally, 60 minutes before acetic acid
Experimental: The prodrug compounds are administered either transdermally or orally. The parent compounds are administered orally. The number of writhing that occurred when mice are administered the acetic acid solution are counted, and the rate of inhibition based on the control group which was not pretreated with any test compounds is calculated. […] The A group is the control group.

[3] = Plasma levels after transdermal administration to hairless mice; type: in vivo; details: for t, time to peak plasma level after parent compound: parent compound administered (time when taken orally); for Peak plasma concentration after parent compound: parent compound administered, hairless mice
Experimental: Tested compounds (20% solution or suspension in 1 mL isopropanol) are administered transdermally to the skin of intact hairless mice. The plasma levels of the parent compounds are determined by HPLC.

[4] = system: rats; experiment: Antipyretic activity, E. coli suspension as pyrogen; type: in vivo; details: 25 mg/kg transdermally; in °C (unit assumed)
Experimental: Rats are administered with sterilized E. coli suspension as a pyrogen. Each group of rats are administered with a prodrug compounds or parent compounds at a dosage specified below. The prodrug compounds are administered either orally or transdermally. The parent compounds are administered orally.

[5] = system: rat; details: rats;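 note: acute toxicity in rats expressed as LD50, determined for both prodrugs and their parent compounds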
Experimental: The acute toxicity of the prodrug compounds and parent compounds are measured by LD50 of rat.

[6] = Solubility in water / aqueous solubility of HPPs and parent drugs; details: water

| solubility [6] | In vitro penetration rate (apparent flux), parent compounds [1] | t, time to peak plasma level after parent compound [3] | Peak plasma concentration after parent compound [3] | Compound | In vitro penetration rate (apparent flux), prodrug compounds [1] | % (rate of writhing inhibition) [2] | No. of Writhing [2] | Peak plasma concentration of parent compound after prodrug compound ([3]; mouse, in vivo) | t, time to peak plasma level of parent compound after prodrug compound ([3]; mouse, in vivo) | body temperature, t = 0 min [4] | body temperature, t = 90 min [4] | body temperature, t = 180 min [4] | body temperature, t = 270 min [4] | LD50 of HPP [5] |
| --- | --- | --- | --- | --- | --- | --- | --- | --- | --- | --- | --- | --- | --- | --- |
| 100 µg/mL (≈ 441 µM) | 10 μg/cm^2/h | 1 to 2 h | 0.1 mg/L | C=CCOc1ccc(CC(=O)O)cc1Cl [Alclofenac, alclofenac, reference compound] |  |  |  |  |  |  |  |  |  |  |
| 100 µg/mL (≈ 354 µM) |  | 1 to 2 h | 0.1 mg/L | O=C(O)COc1nn(Cc2ccccc2)c2ccccc12 [Bendazac, bendazac, reference compound] |  |  |  |  |  |  |  |  |  |  |
| < 100 µg/mL | 10 μg/cm^2/h | 2 to 4 h | 0.1 mg/L | Cc1c(Nc2ncccc2C(=O)O)cccc1C(F)(F)F [Flunixin, flunixin, reference compound] |  |  |  |  |  |  |  |  |  |  |
| 200 µg/mL (≈ 819 µM) | 30 μg/cm^2/h | 2 to 4 h | 10 mg/L | CC(C(=O)O)c1ccc(-c2ccccc2)c(F)c1 (stereo not shown) [Flurbiprofen, flurbiprofen, reference compound] |  |  |  |  |  |  |  |  |  |  |
| < 100 µg/mL | <1 μg/cm^2/h | 2 to 4 h | 0.1 mg/L | Cc1cc(NC(=O)C2=C(O)c3ccccc3S(=O)(=O)N2C)no1 [Isoxicam, isoxicam, reference compound] |  |  |  |  |  |  |  |  |  |  |
| 100 µg/mL (≈ 392 µM) | 30 μg/cm^2/h | 2 to 4 h | 10 mg/L | O=C(c1ccccc1)c1ccc2n1CCC2C(=O)O (stereo not shown) [Ketorolac, ketorolac, reference compound] |  |  |  |  |  |  |  |  |  |  |
| < 100 µg/mL | 10 μg/cm^2/h | 2 to 4 h | 0.1 mg/L | Cc1ccc(Cl)c(Nc2ccccc2C(=O)O)c1Cl [Meclofenamic acid, meclofenamic acid, reference compound] |  |  |  |  |  |  |  |  |  |  |

Further lines, the compound ahead of its results:

| Compound | solubility [6] | In vitro penetration rate (apparent flux), parent compounds [1] | t, time to peak plasma level after parent compound [3] | Peak plasma concentration after parent compound [3] | In vitro penetration rate (apparent flux), prodrug compounds [1] | % (rate of writhing inhibition) [2] | No. of Writhing [2] | Peak plasma concentration of parent compound after prodrug compound ([3]; mouse, in vivo) | t, time to peak plasma level of parent compound after prodrug compound ([3]; mouse, in vivo) | body temperature, t = 0 min [4] | body temperature, t = 90 min [4] | body temperature, t = 180 min [4] | body temperature, t = 270 min [4] | LD50 of HPP [5] |
| --- | --- | --- | --- | --- | --- | --- | --- | --- | --- | --- | --- | --- | --- | --- |
| 4-N,N-dimethylaminobutyryloxy-2-methyl-N-[5-Methyl-3-isoxolyl-2H-1,2-benzothiazine-3-carboxamide 1,1-dioxide].HCl |  |  |  |  | 1800 μg/cm^2/h | 55% | 15.8 | 20 mg/L | 50 min | 37.52 ± 0.06 | 36.62 ± 0.07 | 36.53 ± 0.06 | 36.60 ± 0.05 | 570 mg/kg |
| Cc1cnc(NC(=O)C2=C(OC(=O)CCCN(C)C)c3ccccc3S(=O)(=O)N2C)s1.Cl [4-N,N-dimethylaminobutyryloxy-2-methyl-N-(5-methyl-2-thiazolyl)-2H-1,2-benzothiazine-3-carboxamide-1,1-dioxide.HCl] |  |  |  |  | 1900 μg/cm^2/h | 48% | 18.2 | 20 mg/L |  | 37.57 ± 0.07 | 36.53 ± 0.08 | 36.52 ± 0.08 | 36.50 ± 0.07 | 590 mg/kg |
| CN(C)CCCC(=O)OC1=C(C(=O)Nc2ccccn2)N(C)S(=O)(=O)c2cc(Cl)sc21.Cl [6-chloro-4-N,N-dimethylaminobutyryloxy-2-methyl-N-2-pyridinyl-2H-thieno[2,3-e]-1,2-thiazine-3-carboxamide 1,1-dioxide.HCl] |  |  |  |  | 1600 μg/cm^2/h | 53% | 16.5 | 20 mg/L |  | 37.55 ± 0.05 | 36.66 ± 0.06 | 36.60 ± 0.06 | 36.61 ± 0.07 | 580 mg/kg |
| Cc1ccc2c(c1)CC(=O)c1cc(C(C)C(=O)O)ccc1O2 (stereo not shown) [Bermoprofen, bermoprofen, reference compound] | 100 µg/mL (≈ 337 µM) | 40 μg/cm^2/h | 2 to 4 h | 10 mg/L |  |  |  |  |  |  |  |  |  |  |
| CN1C(C(=O)Nc2ccccn2)=C(O)c2sc(Cl)cc2S1(=O)=O [Lornoxicam, lornoxicam, reference compound] | < 100 µg/mL | <1 μg/cm^2/h | 2 to 4 h | 0.1 mg/L |  |  |  |  |  |  |  |  |  |  |
| CC(C(=O)O)c1ccc(CC2CCCC2=O)cc1 (stereo not shown) [Loxoprofen, loxoprofen, reference compound] | 100 µg/mL (≈ 406 µM) | 30 μg/cm^2/h | 2 to 4 h | 10 mg/L |  |  |  |  |  |  |  |  |  |  |
